# Literature values, collected in patent US20220298163A1, “BTK INHIBITORS WITH IMPROVED DUAL SELECTIVITY” (BEIGENE, LTD., priority 2017, published 2022).
# Conditions: other Btk inhibitors, meeting abstract 2016; cited from earlier work
row,Structure (SMILES),bleeding adverse event (in words)
1,CC#CC(=O)N1CCC[C@H]1c1nc(-c2ccc(C(=O)Nc3ccccn3)cc2)c2c(N)nccn12 [ACP-196],Bleeding as a common adverse event (AE)
2,C=CC(=O)N1CCC([C@@H]2CCNc3c(C(N)=O)c(-c4ccc(Oc5ccccc5)cc4)nn32)CC1 [BGB-3111],Bleeding as a common adverse event (AE)
3,CC#CC(=O)N1CC[C@@H](n2c(=O)n(-c3ccc(Oc4ccccc4)cc3)c3c(N)ncnc32)C1 [ONO-4059],Bleeding as a common adverse event (AE)
